Laboratory results reported in article PMC7955776 (Investigational new drugs, 2020).

How the values were obtained:
[1] = human, in vivo, iv, 80 mg/m2
clinical = conditions: human, in vivo, iv, 80 mg/m2
[2] = Paclitaxel plasma pharmacokinetics alone and in combination with RO4929097; conditions: 80 mg/m2 IV
metastatic TNBC = conditions: in combination with first line docetaxel, metastatic TNBC patients; cited from earlier work

Structure (SMILES)	AUC INF [1] [ng·h/mL]	Half life [1] [h]	AUC(0-inf) (clinical) [ng·h/mL]	half-life (clinical) [h]	Paclitaxel PK alone (day -1) versus in combination with RO4929097 (day 15) [2]	Partial response (metastatic TNBC) [%]	Stable disease (metastatic TNBC) [%]
CC(=O)O[C@H]1C(=O)[C@@]2(C)[C@H]([C@H](OC(=O)c3ccccc3)[C@]3(O)C[C@H](OC(=O)[C@H](O)[C@@H](NC(=O)c4ccccc4)c4ccccc4)C(C)=C1C3(C)C)[C@]1(OC(C)=O)CO[C@@H]1C[C@@H]2O [Paclitaxel, paclitaxel]	4911 ± 1078	11.3 ± 2.5	4800 ± 1170	10.3 ± 2.5	No significant differences		
CCC[C@H](N[C@H]1CCc2cc(F)cc(F)c2C1)C(=O)Nc1cn(C(C)(C)CNCC(C)(C)C)cn1 [PF-03084014]						16	36
